# According to patent US11530235B2, “Compounds and methods used in assessing mono-PARP activity” (Oregon Health & Science University, priority 2015, dated 2022):
# How the values were obtained:
# [1] = biological target: T1, GFP-WT-PARP10 (Homo sapiens, UniProt Q53GL7); assay: Lysate labeling, HEK 293T cells expressing WT-PARP10; details: HEK 293T lysate, WT-PARP10, 100 μM, click conjugation with biotin-azide
# T1 sequence (Q53GL7 1-1025): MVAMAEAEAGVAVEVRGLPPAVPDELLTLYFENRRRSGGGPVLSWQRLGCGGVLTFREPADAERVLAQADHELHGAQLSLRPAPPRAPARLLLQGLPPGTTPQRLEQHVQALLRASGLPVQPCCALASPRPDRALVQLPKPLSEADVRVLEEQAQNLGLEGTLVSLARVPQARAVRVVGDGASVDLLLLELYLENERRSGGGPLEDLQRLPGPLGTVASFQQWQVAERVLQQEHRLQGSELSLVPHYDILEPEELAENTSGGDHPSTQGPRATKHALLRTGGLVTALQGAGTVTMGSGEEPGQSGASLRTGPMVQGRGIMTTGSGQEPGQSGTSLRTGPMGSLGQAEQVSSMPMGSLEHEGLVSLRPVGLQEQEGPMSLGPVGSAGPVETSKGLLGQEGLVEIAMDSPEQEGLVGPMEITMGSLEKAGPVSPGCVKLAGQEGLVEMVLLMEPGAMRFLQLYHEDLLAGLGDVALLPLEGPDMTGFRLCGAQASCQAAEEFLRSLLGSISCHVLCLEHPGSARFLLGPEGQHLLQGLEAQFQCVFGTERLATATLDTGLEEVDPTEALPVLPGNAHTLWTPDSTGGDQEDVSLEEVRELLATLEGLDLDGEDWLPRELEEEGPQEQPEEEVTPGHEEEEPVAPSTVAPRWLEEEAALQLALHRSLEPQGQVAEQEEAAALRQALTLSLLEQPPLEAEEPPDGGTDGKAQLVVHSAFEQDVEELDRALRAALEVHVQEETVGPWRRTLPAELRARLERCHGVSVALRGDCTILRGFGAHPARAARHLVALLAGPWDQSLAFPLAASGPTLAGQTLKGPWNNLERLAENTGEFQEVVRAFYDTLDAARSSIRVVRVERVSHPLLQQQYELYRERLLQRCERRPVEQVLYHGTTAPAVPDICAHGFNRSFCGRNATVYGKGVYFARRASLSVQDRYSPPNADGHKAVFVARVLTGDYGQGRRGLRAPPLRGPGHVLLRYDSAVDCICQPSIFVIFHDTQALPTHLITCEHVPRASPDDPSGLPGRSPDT
# [2] = biological target: T2, WT-PARP15cat (Homo sapiens, UniProt Q460N3); assay: In vitro SRPK2 MARylation with WT-PARP15cat; type: biochemical
# T2 sequence (Q460N3 482-678 limits assumed): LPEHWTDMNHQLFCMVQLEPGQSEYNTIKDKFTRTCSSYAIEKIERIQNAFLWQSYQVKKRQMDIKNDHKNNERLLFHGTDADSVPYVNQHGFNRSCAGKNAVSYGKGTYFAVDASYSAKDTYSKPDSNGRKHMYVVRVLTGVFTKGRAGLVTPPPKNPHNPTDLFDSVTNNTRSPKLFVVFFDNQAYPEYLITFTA
# [3] = biological target: T3, WT-PARP11 (Homo sapiens, UniProt Q9NR21); assay: Lysate labeling, HEK 293T cells expressing WT-PARP11; details: HEK 293T lysate
# T3 sequence (Q9NR21 1-331 isoform Q9NR21-1): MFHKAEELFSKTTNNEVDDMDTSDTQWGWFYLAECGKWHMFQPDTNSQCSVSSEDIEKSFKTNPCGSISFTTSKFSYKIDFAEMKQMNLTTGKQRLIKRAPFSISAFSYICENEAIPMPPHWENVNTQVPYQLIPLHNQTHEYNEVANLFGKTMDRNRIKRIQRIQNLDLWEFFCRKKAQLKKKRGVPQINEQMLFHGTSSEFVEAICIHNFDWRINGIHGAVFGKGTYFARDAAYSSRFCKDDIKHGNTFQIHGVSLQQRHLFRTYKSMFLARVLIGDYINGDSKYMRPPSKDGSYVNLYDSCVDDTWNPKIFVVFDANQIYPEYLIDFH
# [4] = biological target: L926A-PARP10cat (Homo sapiens, UniProt Q53GL7, L926A); assay: SRPK2 MARylation assay with L926A-PARP10cat; details: relative to WT-PARP10cat; 100 μM NAD+ analogue, in-gel fluorescence
# [5] = biological target: T4, WT-PARP10cat (Homo sapiens, UniProt Q53GL7); assay: SRPK2 MARylation assay with WT-PARP10cat; details: 100 μM NAD+ analogue, 2 hours at 30° C., in-gel fluorescence
# T4 sequence (Q53GL7 806-1025 limits assumed): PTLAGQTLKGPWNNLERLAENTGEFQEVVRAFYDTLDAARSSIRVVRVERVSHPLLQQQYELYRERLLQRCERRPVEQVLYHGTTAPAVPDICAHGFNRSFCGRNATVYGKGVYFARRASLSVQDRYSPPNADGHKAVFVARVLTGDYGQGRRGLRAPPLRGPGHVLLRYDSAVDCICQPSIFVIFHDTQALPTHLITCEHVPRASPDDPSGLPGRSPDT
# Sequence of L926A-PARP10cat (Q53GL7 806-1025 L926A): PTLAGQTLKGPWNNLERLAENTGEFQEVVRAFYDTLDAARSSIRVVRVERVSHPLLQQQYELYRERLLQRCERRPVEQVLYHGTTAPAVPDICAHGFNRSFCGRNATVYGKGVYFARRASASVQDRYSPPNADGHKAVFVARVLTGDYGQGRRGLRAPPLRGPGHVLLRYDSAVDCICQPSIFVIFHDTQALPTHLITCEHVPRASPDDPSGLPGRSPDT
Molecule,labeling of lysate proteins (streptavidin-HRP) [1],use as substrate by WT-PARP15cat to MARylate SRPK2 [2],labeling of lysate proteins (streptavidin-HRP) [3],use as substrate to mediate SRPK2 MARylation by L926A-PARP10cat [4],use as substrate to mediate SRPK2 MARylation by WT-PARP10cat [5]
5-benzyl-6-a-NAD+ [5-Bn-6-a-NAD+],low-level of background labeling,did not use,Minimal background labeling,–,–
C#CCNc1ncnc2c1ncn2[C@@H]1O[C@H](COP(=O)(O)OP(=O)([O-])OC[C@H]2O[C@@H]([n+]3cccc(C(N)=O)c3)[C@H](O)[C@@H]2O)[C@@H](O)[C@H]1O [6-a-NAD+],–,–,–,to a lesser extent,used as a substrate
